Patent US20250205226A1, “USE OF N-(3-(4-(3-(DIISOBUTYLAMINO)PROPYL)PIPERAZIN-1-YL)PROPYL)-1H-BENZO[D]IMIDAZOL-2-AMINE SALTS AND SOLVATES THEREOF FOR THE TREATMENT OF SENSORY NEURON DISEASES” (ALZPROTECT, priority 2022, published 2025)
Where two headings read alike, the source gives them in different places.

System: primary culture of rat sensory neurons and Schwann cells
Format: cell-based
Conditions: for Effect on SN neurite network after cisplatin injury / Effect on SN survival as compared to the cisplatin condition: 3 nM to 100 nM, with cisplatin 10 μg/mL injury; for Survival of SNs (number of MAP-2 positive SNs), mean survival / Total neurite network (MAP-2), mean length: percentage of control, 24 h
Procedure: Primary sensory neurons (SN) and Schwann cells (SC) were cultured as previously described in Cancer Chem. Pharmacol. 2008 November;62 (6): 995-1007. Briefly, pregnant female rats of 15 days gestation (Rats Wistar; Janvier Labs France) were killed using a deep anesthesia with CO2 chamber and a cervical dislocation. Then, fetuses were collected and immediately placed in ice-cold L15 Leibovitz medium with a 2% penicillin (10,000 U/mL) and streptomycin (10 mg/mL) solution (PS) and 1% bovine serum albumin (BSA). DRG from spinal cord were treated for 20min at 37° C. with a trypsin-EDTA solution at a final concentration of 0.05% trypsin and 0.02% EDTA. The dissociation was stopped by addition of Dulbecco's modified Eagle's medium (DMEM) with 4.5 g/L of glucose, containing DNAse I grade II (final concentration 0.5 mg/mL) and 10% fetal calf serum (FCS). Cells were mechanically dissociated through the tip of a 10 mL pipette. Cells were then centrifuged at 515× g for 10 min at 4° C. DMEM F12 with a 1% solution of N2 supplement, 2 mmol/L of L-glutamine, 2% of PS solution, NGF (5 ng/ml) and NT3 (5 ng/ml). Cells were seeded at a density of 15,000 per well in 96-well plates pre-coated with poly-L-lysine and cultured at 37° C. in an air (95%)-CO2 (5%) incubator. […] Cells were washed twice in PBS. Cell membranes were permeabilized and non-specific sites were blocked with a solution of PBS containing 0.1% of saponin and 1% FCS for 15 min at room temperature. Then, cells were incubated for 2 h with a mouse monoclonal antibody anti-microtubule associated protein 2 (MAP-2) at dilution of 1/400 in PBS containing 1% fetal calf serum and 0.1% of saponin. This antibody binds specifically MAP-2 present in cell bodies and neurites of all SNs. […] Nuclei of neurons were labeled by a fluorescent marker (Hoechst solution). For each condition, 30 pictures (representative of 90% of the well area) per well were automatically taken using ImageXpress (Molecular Devices) with 20× magnification. All images were taken under the same conditions (exposition time, gain and laser intensity). Analysis of different endpoints was automatically performed using Custom Module Editor (Molecular Devices). The endpoints were: • Survival of SNs (number of MAP-2 positive SNs) • Total neurite network (MAP-2): total length of neurites of SNs (expressed in μm) All values are expressed as mean +/−SEM. Statistical analysis was performed by one-way ANOVA, followed by PLSD Fisher test.

## N-(3-(4-(3-(diisobutylamino)propyl)piperazin-1-yl)propyl)-^1H-benzo[d]imidazol-2-amine sesqui-succinate salt [sesqui-succinate salt Form 1]
  Effect on SN neurite network after cisplatin injury: able to protect the neurite network from cisplatin damage
  Effect on SN survival as compared to the cisplatin condition: positive and significant effect on survival
10 nM (maximal effect) with cisplatin 10 μg/mL injury, FIG. 8A
  Survival of SNs (number of MAP-2 positive SNs), mean survival: ~77%
10 nM (maximal effect) with cisplatin 10 μg/mL injury, FIG. 8B
  Total neurite network (MAP-2), mean length: ~80%

## CC(C)CN(CCCN1CCN(CCCNc2nc3ccccc3[nH]2)CC1)CC(C)C.O=S(=O)(O)O.O=S(=O)(O)O [N-(3-(4-(3-(diisobutylamino)propyl)piperazin-1-yl)propyl)-1H-benzo[d]imidazol-2-amine di-sulphate]
  Effect on SN neurite network after cisplatin injury: able to improve the neurite network after cisplatin injury
  Effect on SN survival as compared to the cisplatin condition: positive and significant effect on survival
30 nM (maximal effect) with cisplatin 10 μg/mL injury, FIG. 7A
  Survival of SNs (number of MAP-2 positive SNs), mean survival: 80%
30 nM (maximal effect) with cisplatin 10 μg/mL injury, FIG. 7B
  Total neurite network (MAP-2), mean length: 83%
